What was measured:
Assay type in all cases: in vivo, mouse
H^+,K^+-ATPase = assay: H+,K+-ATPase-mediated H+ secretion (JH) in intercalated cells of microperfused inner cortical collecting ducts from DOCP-treated mice (BCECF-AM)
Procedure: One likely mechanism for mineralocorticoid-induced changes in acid-base homeostasis was stimulation of renal H^+,K^+-ATPase activity in response to mineralocorticoid-induced K^+ deficits. Therefore, H^+,K^+-ATPase activity was assessed in inner cortical collecting ducts from control and DOCP-treated mice. Individual intercalated cells from microperfused collecting ducts were loaded with the pH sensitive fluorescent dye, BCECF-AM. The addition of inhibitors of the Na^+/H^+ exchanger and the H^+-ATPase allowed for the measurement of H^+,K^+-ATPase-mediated H^+ secretion (JH) in response to an acute intracellular acid load (NH4Cl). The overall rate of H^+,K^+-ATPase-mediated JH in intercalated cells from control mice was quite slow (˜15H^+/min) (FIG. 1).
Additional experiments were conducted to identify which intercalated cell subtype was responsible for the DOCP-induced increase in H^+,K^+-ATPase mediated JH. Again, the rate of H^+,K^+-ATPase-mediated JH was measured in intercalated cells of inner cortical collecting ducts from control and DOCP-treated mice. At the end of the experiment, A- and B-type ICs were differentiated by peritubular Cl^− removal and return as has been described previously^12,13 The characteristic inverse responses of A- and B-type intercalated cells to Cl^− removal and return were observed (Table 2). […]
Inner cortical collecting ducts were hand dissected at 4° C., transferred to a mounting chamber and perfused as described previously.^25 The ratiometric, pH sensitive dye, BCECF-AM (15 μM, Invitrogen) was added to the luminal perfusate for 10 minutes and fluorescence measurements were performed after dye de-esterification. […] Recovery rates were calculated from the linear portion of the pH, recovery phase starting with the lowest pH, achieved. The intrinsic buffering capacity was calculated from the formula βi=ΔHi/ΔpHi where ΔHi is the change in the calculated [NH4]i and ΔpHi the change in pHi during the acid loaded phase. Acid secretion rates (JH) were calculated from the formula JH=βi*ΔpH, (U/min) and expressed as [H^+]/min. […]

HKα1 mRNA = assay: Real time PCR of renal HKα1 mRNA expression in DOCP-treated mice; details: cortex, outer medulla and inner medulla, eight days after DOCP, normal diet
From the text: The principal mechanism of mineralocorticoid action is through modulation of target gene transcription.^15 Therefore, the next experiments evaluated the effect of DOCP on renal HKα1 and HKα2 mRNA expression. Real time quantitative PCR was used to investigate changes in steady state mRNA levels of H^+,K^+-ATPase α subunits, HKα1 and HKα2, in cortex, outer medulla, and inner medulla of control and DOCP-treated mice.
RNA was recovered from cortex, medulla, and inner medulla with TRIzol reagent (Invitrogen). RNA was treated with DNase 1 (Ambion DNA Free) and converted to cDNA using SuperScript III (Invitrogen). For real time quantitative PCR, 20 ng cDNA was used to quantify mRNA expression with TaqMan Gene Expression (Applied Biosystems) primer/probe sets for HKα1 (Atp4a, Mm00444423_m1), HKα2 (Atp12a, Mm0131809_m1), and β-actin (Actb, Mm00607939_s1). Cycle threshold (Ct) values were normalized to β-actin, and relative expression (control set to 100%) was calculated by the ΔΔCt method.^28

[1] = Radiotelemetry (blood pressure, heart rate, locomotor activity) in WT and HKα1,2−/− mice, control and DOCP; details: for Mean arterial pressures / Heart rate / Locomotor activity: DOCP
From the text: Age matched, male C56BL/6 WT and C56BL/6 HKα1,2^−/− mice were anesthetized using 5% isoflurane, and radiotelemetry transmitters (PA-C10, Data Sciences, St. Paul, Minn.) were implanted under sterile conditions (1-3% continuous isoflurane). The catheter was placed in the left carotid artery and the housing of the transmitter was implanted subcutaneously on the animal's right flank. Mice were allowed to recover for a period of at least 14 days prior to recordings. These mice were not subject to metabolic cage experiments or blood and tissue collections. Mice were fed a normal lab chow (Teklad 2018, 0.2% Na and 0.5% K) and allowed free access to water. DOCP treated mice received an intramuscular injection of 1.7 mg DOCP (Percorten V, Novartis Pharmaceuticals) and were fed the normal gel diet described previously supplemented with NaCl to equal 0.4% Na^+ ad libitum for 8 days with free access to water. Radiotelemetry recordings were performed one week before and one week after DOCP treatment. At the time of the control recording, mice ranged in age from 15-25 weeks. Recording were made for 2 minutes at the beginning of each hour or for 2 minutes every 10 minutes for 48 hours. Moving averages were calculated for each hour. Comparisons of systolic BP, HR, and LA were made for the main effects 1) DOCP treated versus untreated and 2) WT versus HKα1,2^−/− mice. Differences between the daytime (06:00-17:59) and nighttime (18:00-05:59) values for these parameters were also compared.
Radiotelemetry was performed in order to assess genotypic differences in systolic BP, HR and LM during normal and DOCP treatment. Example 48 hr tracings of systolic BP, HR, and LA comparing WT and HKα1,2^−/− during normal and DOCP treatment are shown in FIG. 13.

For CC(C)(C)C(=O)OCC(=O)[C@H]1CC[C@H]2[C@@H]3CCC4=CC(=O)CC[C@]4(C)[C@H]3CC[C@]12C [DOCP, desoxycorticosterone pivalate], the “increase in H+,K+-ATPase-mediated JH” value (H^+,K^+-ATPase; A-type intercalated cells, DOCP-treated versus control mice) was “approximately 60%”, the “rate of H+,K+-ATPase-mediated JH” value (H^+,K^+-ATPase; B type ICs, DOCP-treated versus control mice) was “not affected” and the “increase in H+,K+-ATPase-mediated JH” value (H^+,K^+-ATPase; intercalated cells from DOCP-treated mice (eight days) versus control) was “greater than 60%”. The “HKα1 mRNA expression compared to control” value (HKα1 mRNA) was “not significantly altered”, the “effect on daytime or nighttime systolic BP” value ([1]; HKα1,2−/− mice) was “failed to significantly increase” and the Mean arterial pressures ([1]; HKα1,2−/− mice, Daytime (Inactive)) was 112.7 ± 1.8 mmHg. It also gave a Heart rate ([1]; HKα1,2−/− mice, Daytime) of 554.8 ± 21.4 beats/min, a Locomotor activity ([1]; HKα1,2−/− mice, Daytime) of 3.267 ± 0.603 and a Mean arterial pressures ([1]; HKα1,2−/− mice, Nighttime (Active)) of 118.5 ± 2.4 mmHg. The Heart rate ([1]; HKα1,2−/− mice, Nighttime) was 580.5 ± 20.1 beats/min, the Locomotor activity ([1]; HKα1,2−/− mice, Nighttime) was 5.410 ± 1.078 and the “effect on locomotor activity (LA)” value ([1]; WT and HKα1,2−/− mice) was “did not significantly affect”. For the same molecule, the “effect on systolic BP during the day and night” value ([1]; WT mice) was “significantly increased”, the “effect on HR during the night” value ([1]; WT mice, DOCP treatment) was “significant decrease” and the Mean arterial pressures ([1]; WT mice, Daytime (Inactive)) was 112.9 ± 2.3 mmHg. It also gave a Heart rate ([1]; WT mice, Daytime) of 496.7 ± 17.5 beats/min, a Locomotor activity ([1]; WT mice, Daytime) of 3.913 ± 0.407 and a Mean arterial pressures ([1]; WT mice, Nighttime (Active)) of 122.5 ± 2.9 mmHg. It also gave a Heart rate ([1]; WT mice, Nighttime) of 533.5 ± 17.2 beats/min and a Locomotor activity ([1]; WT mice, Nighttime) of 7.036 ± 0.735.
